Measured values taken from ChEMBL document CHEMBL4390688, “Accelerating the discovery of DGAT1 inhibitors through the application of parallel medicinal chemistry (PMC)” (Bioorg Med Chem Lett, 2019).

What was measured:
[1] = Half life in Sprague-Dawley rat at 1 mg/kg, iv or 2 mg/kg, po; format: ADME, organism-based; conditions: in vivo
[2] = Mutagenicity in Salmonella typhimurium […] up to 30 to 5000 ug/plate by Ames test; format: toxicity; conditions: salmonella enterica subsp. enterica serovar typhimurium
[3] = Half life in Beagle dog at 1 mg/kg, iv or 2 mg/kg, po; format: ADME, organism-based, Canis lupus familiaris; conditions: in vivo
[4] = Volume of distribution at steady state in Sprague-Dawley rat at 1 mg/kg, iv or 2 mg/kg, po; format: ADME, organism-based; conditions: in vivo, read-out: Vdss
[5] = Mutagenicity in Salmonella typhimurium TA98 up to 30 to 5000 ug/plate by Ames test; format: toxicity; conditions: salmonella enterica subsp. enterica serovar typhimurium
[6] = target: T1, Adenosine receptor A2a (Homo sapiens, UniProt P29274); assay: Activity against human A2AR assessed as inhibition of cAMP accumulation by cAMP functional assay
[7] = Cmax in Beagle dog at 1 mg/kg, iv or 2 mg/kg, po; format: ADME, organism-based, Canis lupus familiaris; conditions: in vivo
[8] = target: T2, Diacylglycerol O-acyltransferase 1 (Mus musculus, UniProt Q9Z2A7)
T2 sequence (Q9Z2A7 whole entry): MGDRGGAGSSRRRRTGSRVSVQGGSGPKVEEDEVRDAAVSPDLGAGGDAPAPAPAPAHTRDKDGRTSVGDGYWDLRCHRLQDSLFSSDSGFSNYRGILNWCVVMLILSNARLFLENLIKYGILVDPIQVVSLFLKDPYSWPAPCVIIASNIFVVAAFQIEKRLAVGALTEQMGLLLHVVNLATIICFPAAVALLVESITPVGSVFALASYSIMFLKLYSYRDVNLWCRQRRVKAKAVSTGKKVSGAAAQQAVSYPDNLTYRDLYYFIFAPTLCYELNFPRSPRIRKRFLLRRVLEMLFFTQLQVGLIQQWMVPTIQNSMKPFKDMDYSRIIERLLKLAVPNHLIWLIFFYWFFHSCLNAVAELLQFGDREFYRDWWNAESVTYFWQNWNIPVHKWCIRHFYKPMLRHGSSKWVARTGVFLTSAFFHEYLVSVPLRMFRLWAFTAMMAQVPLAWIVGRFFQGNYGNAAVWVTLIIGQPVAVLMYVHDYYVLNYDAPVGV
Description: Inhibition of mouse DGAT1

[9] = target: Voltage-gated inwardly rectifying potassium channel KCNH2 (Homo sapiens, UniProt Q12809); assay: Inhibition of human ERG
[10] = Mutagenicity in Salmonella typhimurium TA100 up to 30 to 5000 ug/plate by Ames test; format: toxicity; conditions: salmonella enterica subsp. enterica serovar typhimurium
[11] = Cmax in Sprague-Dawley rat at 1 mg/kg, iv or 2 mg/kg, po; format: ADME, organism-based; conditions: in vivo
[12] = target: T3, Sterol O-acyltransferase 1 (Homo sapiens, UniProt P35610)
T3 sequence (P35610 whole entry): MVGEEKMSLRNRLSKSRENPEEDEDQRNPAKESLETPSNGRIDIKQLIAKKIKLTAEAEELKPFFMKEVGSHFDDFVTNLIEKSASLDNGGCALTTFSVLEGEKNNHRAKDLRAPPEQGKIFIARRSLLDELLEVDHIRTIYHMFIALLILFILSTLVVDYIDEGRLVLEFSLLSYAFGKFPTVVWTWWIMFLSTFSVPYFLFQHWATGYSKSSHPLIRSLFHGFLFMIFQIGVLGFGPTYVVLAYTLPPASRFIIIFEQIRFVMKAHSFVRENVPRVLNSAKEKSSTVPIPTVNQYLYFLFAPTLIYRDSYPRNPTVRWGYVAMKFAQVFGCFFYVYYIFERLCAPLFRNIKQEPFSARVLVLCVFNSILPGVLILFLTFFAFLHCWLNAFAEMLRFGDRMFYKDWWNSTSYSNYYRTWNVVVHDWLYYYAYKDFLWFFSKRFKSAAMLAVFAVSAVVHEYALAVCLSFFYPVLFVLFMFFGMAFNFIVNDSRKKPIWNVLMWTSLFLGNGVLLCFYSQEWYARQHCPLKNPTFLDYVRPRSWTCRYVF
Description: Inhibition of human ACAT1

[13] = Dose normalized AUC in Beagle dog at 1 mg/kg, iv or 2 mg/kg, po; format: ADME, organism-based, Canis lupus familiaris; conditions: in vivo
[14] = Clearance in Beagle dog at 1 mg/kg, iv or 2 mg/kg, po; format: ADME, organism-based, Canis lupus familiaris; conditions: in vivo
[15] = Oral bioavailability in Sprague-Dawley rat at 2 mg/kg; format: ADME, organism-based; conditions: in vivo
[16] = tested on: Canis familiaris; assay: Reduction in lipid excursion in dog at 1 mg/kg, po measured by lipid tolerance test relative to control; format: functional, Canis lupus familiaris; design: scale not given: the % may be the effect or the level left
[17] = Tmax in Sprague-Dawley rat at 1 mg/kg, iv or 2 mg/kg, po; format: ADME, organism-based; conditions: in vivo
[18] = Clearance in Sprague-Dawley rat at 1 mg/kg, iv and 2 mg/kg, po; format: ADME, organism-based; conditions: in vivo
[19] = tested on: Mus musculus; assay: Reduction in lipid excursion in mouse at 3 mg/kg, po administered as single dose measured after 18 hrs by lipid tolerance test relative to control; format: functional; design: scale not given: the % may be the effect or the level left
[20] = Volume of distribution at steady state in Beagle dog at 1 mg/kg, iv or 2 mg/kg, po; format: ADME, organism-based, Canis lupus familiaris; conditions: in vivo, read-out: Vdss
[21] = Tmax in Beagle dog at 1 mg/kg, iv or 2 mg/kg, po; format: ADME, organism-based, Canis lupus familiaris; conditions: in vivo
[22] = Dose normalized AUC in Sprague-Dawley rat at 1 mg/kg, iv or 2 mg/kg, po; format: ADME, organism-based; conditions: in vivo
[23] = target: T4, Diacylglycerol O-acyltransferase 1 (Homo sapiens, UniProt O75907)
T4 sequence (O75907 whole entry): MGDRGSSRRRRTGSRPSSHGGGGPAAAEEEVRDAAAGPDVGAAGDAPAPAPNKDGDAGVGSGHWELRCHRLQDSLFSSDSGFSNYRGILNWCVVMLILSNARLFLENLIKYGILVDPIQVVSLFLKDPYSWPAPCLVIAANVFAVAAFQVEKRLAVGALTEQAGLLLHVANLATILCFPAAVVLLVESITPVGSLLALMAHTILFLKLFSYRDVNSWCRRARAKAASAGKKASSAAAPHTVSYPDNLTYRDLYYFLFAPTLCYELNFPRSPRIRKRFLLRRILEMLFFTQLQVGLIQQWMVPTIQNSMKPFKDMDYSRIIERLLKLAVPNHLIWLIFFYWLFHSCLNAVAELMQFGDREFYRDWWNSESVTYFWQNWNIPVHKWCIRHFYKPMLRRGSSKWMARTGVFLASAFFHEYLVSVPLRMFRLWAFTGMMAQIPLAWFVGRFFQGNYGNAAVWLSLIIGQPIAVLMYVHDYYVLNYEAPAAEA
Description: Inhibition of human DGAT1

[24] = Oral bioavailability in Beagle dog at 2 mg/kg; format: ADME, organism-based, Canis lupus familiaris; conditions: in vivo
[25] = organism: Homo sapiens; assay: Ratio of IC50 for human ACAT1 to IC50 for human DGAT1
[26] = Mutagenicity in Salmonella typhimurium TA100 by Ames test; format: toxicity; conditions: salmonella enterica subsp. enterica serovar typhimurium
[27] = Mutagenicity in Salmonella typhimurium […] by Ames test; format: toxicity; conditions: salmonella enterica subsp. enterica serovar typhimurium
[28] = Mutagenicity in Salmonella typhimurium TA98 by Ames test; format: toxicity; conditions: salmonella enterica subsp. enterica serovar typhimurium
[29] = target: T1, Adenosine receptor A2a; assay: Activity at human Adenosine A2A receptor; format: ADME
[30] = Distribution coefficient, log D of compound; format: physicochemical; conditions: octanol/water
[31] = Solubility of the compound at pH 7; format: physicochemical; conditions: buffer
[32] = tested on: Mus musculus; assay: Reduction in lipid excursion in mouse at 10 mg/kg, po QD measured at 18 hrs post dose by lipid tolerance test relative to control; format: functional; design: scale not given: the % may be the effect or the level left

T1 sequence (P29274 whole entry): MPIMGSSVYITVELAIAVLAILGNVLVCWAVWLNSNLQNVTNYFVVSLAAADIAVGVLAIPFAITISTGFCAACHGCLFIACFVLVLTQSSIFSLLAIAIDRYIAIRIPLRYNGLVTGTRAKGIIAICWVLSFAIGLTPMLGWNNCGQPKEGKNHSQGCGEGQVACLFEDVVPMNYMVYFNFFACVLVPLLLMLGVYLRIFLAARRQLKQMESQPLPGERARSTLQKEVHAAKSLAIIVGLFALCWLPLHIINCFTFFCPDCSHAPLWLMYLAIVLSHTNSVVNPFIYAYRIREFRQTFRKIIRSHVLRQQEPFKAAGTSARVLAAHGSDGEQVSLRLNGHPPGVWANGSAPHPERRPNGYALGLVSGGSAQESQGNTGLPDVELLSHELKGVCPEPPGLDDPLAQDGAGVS
Voltage-gated inwardly rectifying potassium channel KCNH2, sequence (Q12809 whole entry): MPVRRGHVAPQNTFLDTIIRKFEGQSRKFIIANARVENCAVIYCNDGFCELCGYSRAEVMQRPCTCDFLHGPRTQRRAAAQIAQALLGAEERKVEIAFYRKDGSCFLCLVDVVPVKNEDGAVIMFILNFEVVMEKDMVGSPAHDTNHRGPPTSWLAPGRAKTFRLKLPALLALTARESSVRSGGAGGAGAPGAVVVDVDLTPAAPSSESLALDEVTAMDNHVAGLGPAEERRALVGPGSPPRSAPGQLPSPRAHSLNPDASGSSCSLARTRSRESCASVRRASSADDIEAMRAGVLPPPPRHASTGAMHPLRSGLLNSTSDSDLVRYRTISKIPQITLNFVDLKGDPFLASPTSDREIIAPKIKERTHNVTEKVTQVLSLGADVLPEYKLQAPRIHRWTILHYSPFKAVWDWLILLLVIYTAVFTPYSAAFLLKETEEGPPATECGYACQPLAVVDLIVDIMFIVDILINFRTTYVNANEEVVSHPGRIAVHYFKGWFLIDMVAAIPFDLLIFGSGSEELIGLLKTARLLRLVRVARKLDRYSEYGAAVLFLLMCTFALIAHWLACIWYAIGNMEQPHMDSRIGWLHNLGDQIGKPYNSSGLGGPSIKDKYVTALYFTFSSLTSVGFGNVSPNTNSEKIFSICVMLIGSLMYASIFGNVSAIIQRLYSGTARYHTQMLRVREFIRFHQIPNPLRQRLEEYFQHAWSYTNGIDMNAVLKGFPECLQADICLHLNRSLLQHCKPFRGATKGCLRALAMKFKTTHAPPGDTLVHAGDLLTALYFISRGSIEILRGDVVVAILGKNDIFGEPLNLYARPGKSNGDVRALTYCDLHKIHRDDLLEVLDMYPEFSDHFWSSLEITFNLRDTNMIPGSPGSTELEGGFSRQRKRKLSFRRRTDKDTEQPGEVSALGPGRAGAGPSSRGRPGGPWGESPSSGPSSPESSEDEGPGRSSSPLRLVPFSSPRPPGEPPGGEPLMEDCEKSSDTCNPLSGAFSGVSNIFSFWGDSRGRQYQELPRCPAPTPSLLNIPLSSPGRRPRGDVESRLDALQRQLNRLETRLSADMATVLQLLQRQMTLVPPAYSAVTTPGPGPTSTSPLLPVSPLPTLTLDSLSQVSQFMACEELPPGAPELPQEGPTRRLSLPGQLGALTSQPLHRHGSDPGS

SMILES | IC50 [6] | IC50 [8] | IC50 [12] | IC50 [23] | Ki [9] | Activity [19] | other results
O=C(O)C[C@H]1CC[C@H](OC2CCN(c3ccc(-c4nc5ccccc5[nH]4)cn3)CC2)CC1 | > 10 µM | 0.0421 µM | > 10 µM | 0.0152 µM | 25.7 µM | 85% | Activity [26]: Toxic; Activity [27]: Toxic; Activity [28]: Toxic
O=C(O)C[C@H]1CC[C@H](OC2CCN(c3ccc(-c4nc5c(F)cccc5[nH]4)cn3)CC2)CC1 | 0.91 µM | 0.0214 µM | > 10 µM | 0.008 µM | 10.7 µM | 92% | –
O=C(O)C[C@H]1CC[C@H](OC2CCN(c3ccc(-c4nc5cc(C(F)(F)F)ccc5[nH]4)cn3)CC2)CC1 | 1.8 µM | 0.0046 µM | > 10 µM | 0.002 µM | 4.9 µM | 57% | –
CC1(C(=O)O)CCN(c2ccc(-c3ccc(-c4nc5cc(Cl)ccc5[nH]4)cn3)cn2)CC1 | – | 0.02 µM | > 10 µM | 0.0025 µM | 4.8 µM | – | logD [30]: 1.45; Ratio IC50 [25]: > 4000; Activity [32]: 96%
N#Cc1ccc2[nH]c(-c3ccc(-c4ccc(O[C@H]5CC[C@@H](CC(=O)O)CC5)nc4)nc3)nc2c1 | 0.43 µM | 0.0178 µM | > 10 µM | 0.0036 µM | 2.7 µM | 63% | –
O=C(O)C[C@H]1CC[C@H](OC2CCN(c3ccc(-c4nc5c(F)cc(F)cc5[nH]4)cn3)CC2)CC1 | 0.52 µM | 0.011 µM | > 10 µM | 0.0041 µM | 4.1 µM | 65% | –

More lines, main results first:

IC50 [6] | IC50 [8] | IC50 [12] | IC50 [23] | SMILES | Ki [9] | Activity [19] | other results
3.48 µM | 0.046 µM | > 10 µM | 0.0065 µM | O=C(O)C[C@H]1CC[C@H](OC2CCN(c3ccc(-c4nc5cc(F)c(F)cc5[nH]4)cn3)CC2)CC1 | 40.7 µM | 84% | half-life [1]: 1 h; Activity [2]: Non-Toxic; half-life [3]: 3.2 h; Vd [4]: 1.08 L/kg; Activity [5]: Non-Toxic; Cmax [7]: 2400 nM; Activity [10]: Non-Toxic; Cmax [11]: 230 nM; AUC/dose [13]: 4.1 µM·h/mg/kg; clearance [14]: 3.4 mL/min/kg; bioavailability [15]: 17%; Activity [16]: 100%; Tmax [17]: 1 h; clearance [18]: 17 mL/min/kg; Vd [20]: 0.81 L/kg; Tmax [21]: 0.5 h; AUC/dose [22]: 0.3 µM·h/mg/kg; bioavailability [24]: 40%
0.68 µM | 0.022 µM | > 10 µM | 0.0031 µM | O=C(O)C[C@H]1CC[C@H](OC2CCN(c3ccc(-c4nc5cc(Cl)ccc5[nH]4)cn3)CC2)CC1 | 4.5 µM | – | –
– | – | 3.78 µM | 0.0064 µM | Oc1ccc(-c2ccc(-c3nc4cc(C(F)(F)F)ccc4[nH]3)cc2)cn1 | 2.25 µM | – | Ratio IC50 [25]: > 500
1.2 µM | 0.0098 µM | > 2 µM | 0.0116 µM | COc1ccc2[nH]c(-c3ccc(-c4ccc(O[C@H]5CC[C@@H](CC(=O)O)CC5)nc4)nc3)nc2n1 | 37.7 µM | 96% | Activity [29]: Active
– | 0.0044 µM | 1.94 µM | 0.0013 µM | O=C(O)c1ccc(Oc2ccc(-c3ccc(-c4nc5cc(Cl)ccc5[nH]4)cn3)cn2)cc1 | 1.36 µM | – | logD [30]: 1.49; solubility [31]: < 1 µM
0.45 µM | 0.0052 µM | > 2 µM | 0.0052 µM | O=C(O)C[C@H]1CC[C@@H](Oc2ccc(-c3ccc(-c4nc5ccccc5[nH]4)cn3)cn2)CC1 | 26.9 µM | 92% | Activity [29]: Active
0.97 µM | 0.0095 µM | > 2 µM | 0.007 µM | O=C(O)C[C@H]1CC[C@@H](Oc2ccc(-c3ccc(-c4nc5cc(C(F)(F)F)cnc5[nH]4)cn3)cn2)CC1 | 23.4 µM | 92% | Activity [29]: Active
0.42 µM | 0.0032 µM | > 2 µM | 0.0024 µM | O=C(O)C[C@H]1CC[C@@H](Oc2ccc(-c3ccc(-c4nc5cc(F)ccc5[nH]4)cn3)cn2)CC1 | 8.2 µM | 109% | –
